Experimental data taken from patent US20040116440A1, “Bombesin receptor antagonists” (priority 2000, published 2004).

Legend:
[1] = biological target: T1, cloned human GRP-preferring receptor (BB2) (Homo sapiens, UniProt P30550); experiment: BB2 binding assay, [125I][Tyr4]bombesin competition on membranes of CHO-K1 cells; conditions: 90 minutes
T1 construct: expressed in transfected cells; membranes prepared from the cells
Description: (§1) The compounds of the invention have been evaluated in receptor binding assays which measure their affinity in a cloned human NMB-preferring receptor (BB1) assay and in a cloned human GRP-preferring receptor (BB2) assay. […] Accordingly they may be useful for the diagnosis, prevention, or treatment of male sexual dysfunction in humans and animals, female sexual dysfunction in humans and animals, anxiety and panic disorders, social phobia, depression, psychoses, sleeping disorders, memory impairment, pulmonary hypertension, lung repair and lung development disorders, cancer including prostate cancer and pancreatic cancer, hepatic porphyria, gastrointestinal secretory disturbances, gastrointestinal disorders including colitis, Crohn's disease and inflammatory bowel disease, emesis, anorexia, pain, seasonal affective disorders, feeding disorders, or pruritus.
(§2) In the following experiments, measurement of BB1 and BB2 binding was as follows. CHO-K1 cells stably expressing cloned human NMB (for (BB1 assay) and GRP receptors (for BB2 assay) were routinely grown in Ham's F12 culture medium supplemented with 10% foetal calf serum and 2 mM glutamine. For binding experiments, cells were harvested by trypsinization, and stored frozen at −70° C. in Ham's F12 culture medium containing 5% DMSO until required. On the day of use, cells were thawed rapidly, diluted with an excess of culture medium, and centrifuged for 5 minutes at 2000 g. Cells were resuspended in 50 mM Tris-HCl assay buffer (pH 7.4 at 21° C., containing 0.02% BSA, […] bacitracin, […] chymostatin, […] leupeptin, and 2 mM phosphoramidon), counted, and polytronned (setting 5, 10 sec) before centrifuging for 10 minutes at 28,000 g. The final pellet was resuspended in assay buffer to a final cell concentration of 1.5×10^5/mL. For binding assays, 200 μL aliquots of membranes were incubated with [^125I][Tyr^4]bombesin (<0.1 nM) in the presence and absence of test compounds (final assay volume 250 μL) for 60 minutes and 90 minutes for NMB and GRP receptors, respectively. Nonspecific binding was defined by 1 μM bombesin. Assays were terminated by rapid filtration under vacuum onto Whatman GF/C filters presoaked in 0.2% PEI for >2 hours, and washed 50 mM Tris-HCl (pH 6.9 at 21° C.; 6×1 mL). Radioactivity bound was determined using a gamma counter.
All competition data was analysed using nonlinear regression utilising iterative curve-plolting procedures in Prism® (GraphPad Software Inc., San Diego, USA). IC50 values were corrected to Ki values using the Cheng-Prusoff equation (Cheng Y., Prusoff W. H., Biochem. Pharmacol. 22: 3099-3108, 1973).

[2] = biological target: T2, cloned human NMB-preferring receptor (BB1) (Homo sapiens, UniProt P28336); experiment: BB1 binding assay, [125I][Tyr4]bombesin competition on membranes of CHO-K1 cells; conditions: 60 minutes
T2 construct: expressed in transfected cells; membranes prepared from the cells
T2 sequence (P28336 whole entry): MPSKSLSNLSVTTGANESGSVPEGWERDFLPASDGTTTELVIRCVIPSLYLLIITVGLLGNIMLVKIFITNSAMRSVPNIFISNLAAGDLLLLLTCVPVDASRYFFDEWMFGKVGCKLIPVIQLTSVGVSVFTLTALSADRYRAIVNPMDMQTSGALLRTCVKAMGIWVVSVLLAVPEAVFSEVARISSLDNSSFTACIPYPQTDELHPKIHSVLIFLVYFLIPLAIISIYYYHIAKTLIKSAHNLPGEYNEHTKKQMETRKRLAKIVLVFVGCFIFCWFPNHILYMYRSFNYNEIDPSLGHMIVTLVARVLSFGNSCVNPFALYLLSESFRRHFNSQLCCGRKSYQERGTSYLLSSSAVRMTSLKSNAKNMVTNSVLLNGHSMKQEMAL
Description: as §1
as §2, with “For binding assays, 200 μL aliquots of membranes were incubated with [^125I][Tyr^4]bombesin (<0.1 nM) in the presence and absence of test compounds (final assay volume 250 μL) for 60 minutes and 90 minutes for NMB and GRP receptors, respectively. Nonspecific binding was defined by 1 μM bombesin. Assays were terminated by rapid filtration under vacuum onto Whatman GF/C filters presoaked in 0.2% PEI for >2 hours, and washed 50 mM Tris-HCl (pH 6.9 at 21° C.; 6×1 mL).” left out
All competition data was analysed using nonlinear regression utilising iterative curve-plolting procedures in Prism® (GraphPad Software Inc., San Diego, USA). […]

[3] = Table 2, N-acyl derivatives of Intermediate VIa
[4] = Table 6, N-terminal sulfonamide derivatives

T1 sequence (P30550 whole entry): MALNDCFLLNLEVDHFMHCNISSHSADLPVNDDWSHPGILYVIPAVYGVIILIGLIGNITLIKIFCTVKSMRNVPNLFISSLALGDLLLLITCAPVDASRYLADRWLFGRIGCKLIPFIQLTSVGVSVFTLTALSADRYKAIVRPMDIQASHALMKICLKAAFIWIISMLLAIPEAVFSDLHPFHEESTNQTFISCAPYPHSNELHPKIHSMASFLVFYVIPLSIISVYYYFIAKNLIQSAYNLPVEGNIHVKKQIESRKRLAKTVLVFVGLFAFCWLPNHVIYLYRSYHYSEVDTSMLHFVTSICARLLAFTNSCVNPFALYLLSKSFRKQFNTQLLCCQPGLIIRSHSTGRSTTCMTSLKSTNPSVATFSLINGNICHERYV

| IC50 [1, 3] | IC50 [1, 4] | IC50 [2, 4] | IC50 [2, 3] | Compound |
| --- | --- | --- | --- | --- |
| > 10000 nM |  |  |  | Cc1ccccc1CC(=O)N[C@@](C)(Cc1c[nH]c2ccccc12)C(=O)NCC1(c2ccccn2)CCCCC1 [Example 20, (S)-3-(1H-Indol-3-yl)-2-methyl-N-(1-pyridin-2-yl-cyclohexylmethyl)-2-(2-o-tolyl-ethanoylamino)-propionamide] |
|  | > 10000 nM |  |  | C[C@@](Cc1c[nH]c2ccccc12)(NS(=O)(=O)c1cc(Cl)sc1Cl)C(=O)NCC1(c2ccccn2)CCCCC1 [Example 126, (S)-2-(2,5-Dichloro-thiophene-3-sulfonylamino)-3-(1H-indol-3-yl)-2-methyl-N-(1-pyridin-2-yl-cyclohexylmethyl)-propionamide] |
|  | > 10000 nM | 627 nM |  | C[C@@](Cc1c[nH]c2ccccc12)(NS(=O)(=O)c1cc(C(F)(F)F)ccc1Cl)C(=O)NCC1(c2ccccn2)CCCCC1 [Example 135, (S)-2-(2-Chloro-5-trifluoromethyl-benzenesulfonylamino)-3-(1H-indol-3-yl)-2-methyl-N-(1-pyridin-2-yl-cyclohexylmethyl)-propionamide] |
|  | > 10000 nM | 758 nM |  | C[C@@](Cc1c[nH]c2ccccc12)(NS(=O)(=O)c1ccc(C(F)(F)F)cc1[N+](=O)[O-])C(=O)NCC1(c2ccccn2)CCCCC1 [Example 136, (S)-3-(1H-Indol-3-yl)-2-methyl-2-(2-nitro-4-trifluoromethyl-benzenesulfonylamino)-N-(1-pyridin-2-yl-cyclohexylmethyl)-propionamide] |
|  |  |  | 2520 nM | Dimethylamino-N {(S)-2-(1H-indol-3-yl)-1-methyl-1-[(1-pyridin-2-yl-cyclohexyl-methyl)-carbamoyl]-ethyl}-benzamide [Example 11] |
